Legend:
[1] = target: bacterial carbohydrate-binding module family 32 protein (CBM32); settings: CBM32 binding GlcNAc-α-1,4-Gal; cited from earlier work
mTFF3 = target: T1, mTFF3 (Homo sapiens, UniProt Q07654, C78S); test: Tryptophan fluorescence quenching assay, mTFF3; type: binding
T1 construct: with an N-terminal PelB signal peptide, no interchain Cys, and a C-terminal His6-tag; PelB signal peptide (N, cleaved yes); His6 (C, cleaved yes); made in house; host or cells: E. coli T7 Express, periplasmic extraction
T1 sequence (Q07654 22-80 C78S): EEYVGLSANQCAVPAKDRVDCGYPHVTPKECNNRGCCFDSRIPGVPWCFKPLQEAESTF
Protocol: (§1) Tryptophan fluorescence quenching assays were performed at 25 °C on an EnVision 2105 Multimode Plate Reader (PerkinElmer) with excitation at 280 nm and emission measured at 340 nm. The assay was performed in a 384-well plate (Corning, low volume black round bottom polystyrene non-binding surface) using 15 µl per well. Each sample contained mTFF1 or mTFF3 (5 µM) and GlcNAc-α-1,4-Gal (1 µM–4.1 mM) in 50 mM BTP/citric acid, 25 mM NaCl, at either pH 2.6, 5.0, or 7.4. For each ligand dilution series, Kd was calculated by fitting the data to a one-site binding curve using Prism 8 (GraphPad) and the mean calculated from three independent experiments.

[2] = target: T2, mTFF3 (human TFF3, monomeric) (Homo sapiens, UniProt Q07654, C78S); test: Isothermal titration calorimetry of glycans against mTFF3; type: binding
T2 construct: with an N-terminal PelB signal peptide, no interchain Cys, and a C-terminal His6-tag; PelB signal peptide (N, cleaved yes); His6 (C, cleaved yes); made in house; host or cells: E. coli T7 Express, periplasmic extraction
T2 sequence (Q07654 22-80 C78S): T1 sequence (Q07654 22-80 C78S)
Protocol: (§2) All TFF and ligand stock solutions were prepared in the same buffer (50 mM HEPES, 50 mM NaCl, pH 7.4) and filtered (0.22 µm) just prior to titration. All control and non-binding ligand experiments were performed as 12 × 3.18 µl injections. For experiments with GlcNAc-α-1,4-Gal (Carbosynth), 25 × 1.58 µl injections were used. All runs were performed at 25 °C in a MicroCal iTC200 (Malvern).
(§3) Supplementary Table 2: Parameters used for ITC and thermodynamic terms determined for
(§4) GlcNAc-α-1,4-Gal binding to the TFFs. Data are presented as mean values ±SD for three
(§5) Protein GlcNAc-α- T n Kd ΔH ΔS -TΔS ΔG
(§6) (30 µM) 1,4-Gal (µM) (℃) (µM) (kcal · mol-1) (cal · mol-1 · K-1) (kcal · mol-1) (kcal · mol-1)

the other TFF mutants = test: ITC of GlcNAc-α-1,4-Gal against the other TFF mutants; type: binding, human
Protocol: as §2
(§7) Supplementary Figure 1: ITC controls and negative results. Top row: Ligand into buffer and
(§8) buffer into protein controls for Figure 1D. Bottom row: ITC data for TFF mutants.
(§9) (1 picture or pasted object on this page, not shown here)

all TFFs = test: Dissociation constant of TFF-disaccharide complexes, summary of orthogonal techniques; type: binding, human; settings: physiological pH, approximate
Protocol: as §2, §1

dTFF1bio-N14A = target: T3, dTFF1bio-N14A (Homo sapiens, UniProt P04155, N40A); test: ITC of GlcNAc-α-1,4-Gal against dTFF1bio-N14A; type: binding; settings: mutant dTFF1bio-N14A
T3 construct: […]; made in house; host or cells: E. coli SHuffle T7; dimerised with K3Fe(CN)6
T3 sequence (P04155 25-84 N40A): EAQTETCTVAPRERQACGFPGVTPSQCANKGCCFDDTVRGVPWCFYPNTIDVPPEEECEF
Protocol: as §2, §7, §8, §9

TFF2 (human TFF2) = target: T4, TFF2 (human TFF2) (Homo sapiens, UniProt Q03403, N38Q); test: Isothermal titration calorimetry of glycans against TFF2; type: binding
T4 construct: with an N-terminal gp67 signal peptide and a C-terminal His10-tag; gp67 signal peptide (N, cleaved yes); made in house; host or cells: Sf21 insect cells (baculovirus), secreted
T4 sequence (Q03403 24-129 N38Q): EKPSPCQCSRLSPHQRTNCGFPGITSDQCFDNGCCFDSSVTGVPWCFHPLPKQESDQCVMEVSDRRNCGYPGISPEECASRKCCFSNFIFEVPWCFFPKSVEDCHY
Protocol: as §2, §3, §4, §5, §6

[3] = target: T5, mTFF1 (human TFF1, monomeric) (Homo sapiens, UniProt P04155); test: Isothermal titration calorimetry of glycans against mTFF1; type: binding; settings: 25 °C
T5 construct: PelB signal peptide (N, cleaved yes); His6 (C, cleaved yes); made in house; host or cells: E. coli T7 Express, periplasmic extraction
T5 sequence (P04155 with tags, fused parts or gaps): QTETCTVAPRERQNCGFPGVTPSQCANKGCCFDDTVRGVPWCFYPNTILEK
Protocol: as §2, §3, §4, §5, §6

mTFF1 = target: T6, mTFF1 (Homo sapiens, UniProt P04155); test: Tryptophan fluorescence quenching assay, mTFF1; type: binding
T6 construct: PelB signal peptide (N, cleaved yes); His6 (C, cleaved yes); made in house; host or cells: E. coli T7 Express, periplasmic extraction
T6 sequence (P04155 29-72 limits assumed): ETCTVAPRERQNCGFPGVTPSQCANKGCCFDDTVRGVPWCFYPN
Protocol: as §1

## CC(=O)N[C@H]1[C@@H](O[C@@H]2[C@H](O)[C@@H](O)C(O)O[C@@H]2CO)O[C@H](CO)[C@@H](O)[C@@H]1O (stereo partly drawn) [GlcNAc-α-1,4-Gal]
[1]
  Kd: 72 µM
mTFF3; pH 2.6, 25 °C
  Kd: 350 ± 60 µM
mTFF3; pH 7.4, 25 °C
  Kd: 58 ± 1 µM
mTFF3; mTFF3
  Kd at pH 2.6 relative to pH 7.4: six-fold higher
[2]
  Kd: 65 ± 5 µM
[2]; ITC stoichiometry, 25 °C
  n: 1.0 ± 0.1
[2]; ITC, 25 °C
  -TΔS: 5.0 ± 0.5 kcal/mol
  ΔG: -5.83 ± 0.05 kcal/mol
  ΔH: -10.8 ± 0.5 kcal/mol
  ΔS: -17 ± 2 cal · mol-1 · K-1
The other TFF mutants
  binding by ITC: unable to detect any binding
All TFFs
  Kd: ~50 µM
dTFF1bio-N14A
  binding by ITC: unable to detect any binding
dTFF1bio-N14A; listed as GlcNAc-a-1,4-Gal
  binding by ITC: could not detect any residual binding
TFF2 (human TFF2)
  Kd: 44 ± 8 µM
TFF2 (human TFF2); ITC stoichiometry, 25 °C
  n: 0.7 ± 0.3
TFF2 (human TFF2); ITC, 25 °C
  -TΔS: 20 ± 10 kcal/mol
  ΔG: -6.2 ± 0.2 kcal/mol
  ΔH: -20 ± 10 kcal/mol
  ΔS: -60 ± 40 cal · mol-1 · K-1
[3]; ITC stoichiometry
  n: 1.0 ± 0.2
[3]; ITC
  -TΔS: 4 ± 2 kcal/mol
  ΔG: -5.97 ± 0.03 kcal/mol
  ΔH: -10 ± 2 kcal/mol
  ΔS: -14 ± 5 cal · mol-1 · K-1
[3]; ITC, 50 mM HEPES, 50 mM NaCl, pH 7.4, protein 30 µM
  Kd: 49 ± 4 µM
mTFF1; pH 2.6, 25 °C
  Kd: 67 ± 1 µM
mTFF1; pH 7.4, 25 °C
  Kd: 37 ± 2 µM

From article PMC7221086, “Trefoil factors share a lectin activity that defines their role in mucus” (Nature Communications, 2020)
